The values that follow come from ChEMBL document CHEMBL1201862, “PubChem BioAssay data set” (2004).

Test systems include SW-620; SNB-19; OVCAR-3; HOP-62; UACC-257; LOX IMVI; U-251; SK-MEL-2; MOLT-4; SK-MEL-28; KM12; RPMI-8226; HCT-15; UACC-62; HCC 2998.
Test in all cases: growth of human tumour cells (NCI), 48 h

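Method: 48-hour compound exposure of cells in 96-well plates, five concentrations, linear interpolation of endpoints. Abbreviation: GI50, concentration required for 50% inhibition of growth.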 The source made the active and inactive calls. No stated cut-off is given here; in the data, active = GI50 up to about 1.1 µM and inactive = higher. Some results are limits rather than exact numbers.

Regarding `O=[N+]([O-])c1ccc(-c2cnc3ccccn23)cc1`, the GI50 in the test on SW-620, in the test with SNB-19, in the test on OVCAR-3, in the test on HOP-62, with UACC-257 and with LOX IMVI was > 100 µM (inactive) each time. The GI50 is > 100 µM (inactive) in the test with U-251; > 100 µM (inactive) in the test on SK-MEL-2; > 100 µM (inactive) in the test on MOLT-4; > 100 µM (inactive) in the test with SK-MEL-28; > 100 µM (inactive) in the test on KM12; 52.6 µM (inactive) with RPMI-8226. The GI50 is over 100 µM in the test with HCT-15 and > 100 µM (inactive) in the test on UACC-62.
Take `CCCCCCCCCCCCCCC1OC(=O)c2ccccc21` (stereo unspecified): the GI50 in the test with SW-620 is 63.4 µM (inactive); in the test on SNB-19 it was > 100 µM (inactive); in the test on OVCAR-3, 79.8 µM (inactive); in the test with HOP-62, > 100 µM (inactive); with UACC-257 it was 52.7 µM (inactive); in the test on LOX IMVI, 86.1 µM (inactive). The GI50 in the test on U-251 was > 100 µM (inactive); in the test on MOLT-4, 36.7 µM (inactive); in the test with SK-MEL-28, > 100 µM (inactive); in the test with KM12 it was 39.1 µM (inactive); in the test with RPMI-8226 it was 32.2 µM (inactive); in the test on UACC-62, > 100 µM (inactive).
As to `O=C(O/N=C1/CCC/C1=C\c1ccccc1)c1ccc([N+](=O)[O-])cc1`, the GI50 in the test on SW-620 is > 100 µM (inactive); in the test on OVCAR-3 it was > 100 µM (inactive); in the test with HOP-62, 96.6 µM (inactive); in the test with UACC-257, > 100 µM (inactive); in the test with LOX IMVI, > 100 µM (inactive); in the test on U-251, > 100 µM (inactive). The GI50 was > 100 µM (inactive) in the test with SK-MEL-2; > 100 µM (inactive) with MOLT-4; > 100 µM (inactive) in the test with SK-MEL-28; > 100 µM (inactive) in the test with KM12; > 100 µM (inactive) with RPMI-8226; over 100 µM in the test on HCT-15. The GI50 was 11.7 µM (inactive) in the test with HCC 2998 and > 100 µM (inactive) in the test with UACC-62.
Regarding `N#Cc1c(-c2ccccc2)cc(-c2cccs2)c(C#N)c1N`, the GI50 in the test with SW-620, with SNB-19, in the test with OVCAR-3, in the test with HOP-62, with UACC-257 and in the test on LOX IMVI was > 100 µM (inactive) in each case. For the same compound, the GI50 with U-251 is > 100 µM (inactive); in the test with MOLT-4, > 100 µM (inactive); in the test with KM12, > 100 µM (inactive); with RPMI-8226, > 100 µM (inactive); in the test with HCT-15, over 100 µM; in the test with HCC 2998, > 100 µM (inactive). Further, in the test on UACC-62, the GI50 was > 10 µM (inactive).
`O=C1CC2C=CC1C2CO` (stereo unspecified): the GI50 in the test with SW-620, in the test with SNB-19, in the test on OVCAR-3, in the test with HOP-62, in the test on UACC-257 and in the test with LOX IMVI was > 100 µM (inactive) in each case. Also, the GI50 in the test with U-251 is > 100 µM (inactive); with MOLT-4, > 100 µM (inactive); in the test on SK-MEL-28, > 100 µM (inactive); with KM12 it was > 100 µM (inactive); with RPMI-8226, > 100 µM (inactive); in the test with HCT-15 it was over 100 µM. Moreover, the GI50 in the test on HCC 2998 and in the test with UACC-62 was > 100 µM (inactive) throughout.
As for `Cn1nc(-c2ccccc2NC(=O)C(F)(F)F)c(=O)n(C)c1=S`, the GI50 in the test on SW-620 was 34.5 µM (inactive); with SNB-19, 38.8 µM (inactive); in the test on OVCAR-3, 18.5 µM (inactive); in the test on HOP-62 it was 69.7 µM (inactive); in the test on LOX IMVI it was 29.9 µM (inactive); in the test with U-251, 27 µM (inactive). Further, the GI50 was 26.7 µM (inactive) in the test with SK-MEL-2; 22.6 µM (inactive) with MOLT-4; 12 µM (inactive) in the test with SK-MEL-28; 25.7 µM (inactive) in the test on KM12; 46.1 µM (inactive) with HCC 2998; > 10 µM (inactive) in the test with UACC-62.
For the compound `COC(=O)CCC(=O)N1C/C(=C\c2ccccc2)C(=O)/C(=C/c2ccccc2)C1`, the GI50 with SW-620 was 0.191 µM (active); in the test with SNB-19 it was 3.82 µM (inactive); in the test on OVCAR-3, 2.31 µM (inactive); with HOP-62, 12.6 µM (inactive); in the test with UACC-257, 1.89 µM (inactive); in the test with LOX IMVI, 0.447 µM (active). Moreover, the GI50 with U-251 was 1.24 µM (inactive); in the test with MOLT-4, 1.83 µM (inactive); with SK-MEL-28, 2.31 µM (inactive); with KM12, 0.807 µM (active); in the test with RPMI-8226, 0.416 µM (active); in the test with HCT-15, 0.432 µM. The GI50 with HCC 2998 is 1.67 µM (inactive); in the test on UACC-62, 2.11 µM (inactive).
Regarding `COc1ccc(NC(=O)CSc2nnc(-c3ccc(NC(C)=O)cc3)o2)cc1`, the GI50 with OVCAR-3 was 17.8 µM (inactive); in the test on HOP-62, 34.1 µM (inactive); with UACC-257, 21.5 µM (inactive); with LOX IMVI it was 10.9 µM (inactive); in the test with U-251 it was 15.7 µM (inactive); in the test with SK-MEL-2, 19.1 µM (inactive). In addition, the GI50 in the test with MOLT-4 was 17.4 µM (inactive); with SK-MEL-28, 18.7 µM (inactive); in the test on KM12, 15.1 µM (inactive); in the test with HCT-15, 11.2 µM; in the test on HCC 2998, 19.7 µM (inactive); with UACC-62, 16.5 µM (inactive).
Turning to `CN1C2(c3ccccc3)C(C(=O)c3ccccc3)=C(C(=O)c3ccccc3)C1(c1ccccc1)c1c(-c3ccccc3)sc(-c3ccccc3)c12`, the GI50 in the test on SW-620, in the test on SNB-19, in the test on OVCAR-3, in the test with HOP-62, in the test with UACC-257 and with LOX IMVI was > 100 µM (inactive) throughout. The GI50 in the test with U-251 is > 100 µM (inactive); in the test with SK-MEL-28 it was > 100 µM (inactive); in the test on KM12, > 100 µM (inactive); in the test with RPMI-8226 it was > 100 µM (inactive); in the test on HCT-15, over 100 µM; in the test with HCC 2998, > 100 µM (inactive). In addition, the GI50 in the test with UACC-62 is > 100 µM (inactive).
With `CC(=O)NC(CCCCNC(=O)N(CCCl)N=O)C(=O)NCc1ccccc1` (stereo unspecified), the GI50 in the test on SW-620 is > 100 µM (inactive); in the test on SNB-19 it was > 100 µM (inactive); with OVCAR-3, > 100 µM (inactive); in the test with HOP-62, > 100 µM (inactive); with UACC-257 it was > 100 µM (inactive); in the test on U-251, 61.7 µM (inactive). The GI50 with SK-MEL-2 was > 100 µM (inactive); with MOLT-4, > 100 µM (inactive); with SK-MEL-28, > 100 µM (inactive); in the test with KM12 it was > 100 µM (inactive); with RPMI-8226, > 100 µM (inactive); with HCT-15 it was over 100 µM. For the same compound, the GI50 with HCC 2998 and in the test with UACC-62 was > 100 µM (inactive) in each case.
With `CC(=O)CN(Cc1cc(C)c2c(c1)c1ccccc1n2Cc1ccccc1)S(=O)(=O)c1ccc(C)cc1`, the GI50 in the test with SW-620, in the test on SNB-19, in the test on OVCAR-3, with HOP-62, in the test on UACC-257 and in the test with SK-MEL-2 was > 100 µM (inactive) each time. The GI50 in the test on MOLT-4, in the test with SK-MEL-28, in the test on KM12, in the test on RPMI-8226, with HCC 2998 and with UACC-62 was > 100 µM (inactive) throughout.
As to `COc1cc2cccc(NC(=O)c3cc(OC)c(OC)c(OC)c3Br)c2cc1OC`, the GI50 was 24.8 µM (inactive) with SW-620; 14.2 µM (inactive) with SNB-19; 13.4 µM (inactive) with OVCAR-3; 17.3 µM (inactive) with HOP-62; 3.85 µM (inactive) in the test with UACC-257; 22.3 µM (inactive) in the test with U-251. The GI50 is 19.8 µM (inactive) in the test with SK-MEL-2; 2.79 µM (inactive) with MOLT-4; 16.1 µM (inactive) in the test on SK-MEL-28; 11.1 µM (inactive) with KM12; 2.45 µM (inactive) in the test with RPMI-8226; 28.8 µM (inactive) with HCC 2998. In addition, the GI50 in the test with UACC-62 was 10.3 µM (inactive).
In the case of `O=C(CNC(=O)OCc1ccccc1)Oc1ccccc1`, the GI50 in the test with OVCAR-3, in the test on HOP-62, with UACC-257, in the test on LOX IMVI, in the test with U-251 and in the test on SK-MEL-2 was > 100 µM (inactive) throughout. Moreover, the GI50 was > 100 µM (inactive) in the test with MOLT-4; > 100 µM (inactive) in the test on SK-MEL-28; > 100 µM (inactive) in the test with KM12; > 100 µM (inactive) in the test with RPMI-8226; over 100 µM in the test with HCT-15; > 100 µM (inactive) with HCC 2998. For the same compound, the GI50 in the test with UACC-62 was > 100 µM (inactive).
Consider `COc1cccc(N2C(=O)C3C4C=C5c6ccccc6N(c6ccccc6)C5(C3C2=O)[C@H]2C(=O)N(c3cccc(OC)c3)C(=O)[C@@H]42)c1` (stereo partly specified), for which the GI50 in the test with SW-620, with SNB-19, in the test with OVCAR-3, in the test with HOP-62, in the test with UACC-257 and in the test on LOX IMVI was > 100 µM (inactive) throughout. Besides, the GI50 with U-251 is > 100 µM (inactive); in the test on SK-MEL-2, > 100 µM (inactive); in the test with MOLT-4 it was > 100 µM (inactive); in the test with KM12 it was > 100 µM (inactive); in the test with RPMI-8226, > 100 µM (inactive); in the test with HCT-15, over 100 µM. In addition, the GI50 with UACC-62 is > 100 µM (inactive).
With `COc1ccccc1CCc1cc(OC)c(OC)c(OC)c1`, the GI50 in the test on SW-620 is 47.5 µM (inactive); in the test on SNB-19, 75.9 µM (inactive); in the test on OVCAR-3, 41.3 µM (inactive); in the test on HOP-62, > 100 µM (inactive); in the test with UACC-257, 45 µM (inactive); in the test with LOX IMVI it was 40.3 µM (inactive). Moreover, the GI50 in the test with U-251 is 40.4 µM (inactive); with MOLT-4, 23.9 µM (inactive); with SK-MEL-28, 65.6 µM (inactive); in the test with KM12, 38.5 µM (inactive); with RPMI-8226, 20.2 µM (inactive); in the test on HCT-15 it was 36.1 µM. Further, the GI50 with UACC-62 was 65 µM (inactive).
